Structures can show the parent of a compound that is named as a salt. Where two headings read alike, the source gives them in different places.
How the values were obtained:
[1] = system: NCI-H292 lung cancer cells; test: FDA drug screening, complete media vs cholesterol-free media without statin (TABLE 1); format: cell-based, human
[2] = system: NCI-H292 lung cancer cells; test: FDA drug screening, complete media vs cholesterol-free media with simvastatin (TABLE 2); format: cell-based, human
[3] = Complete minus Cholesterol-free, >0 enhanced anti-cancer activity, about 0 neutral, <0 antagonist
[4] = NCI-H292 cells, cholesterol-free media without statin, FDA drug library screen
[5] = NCI-H292 cells, complete media, FDA drug library screen
[6] = complete media minus cholesterol-free media + simvastatin, >0 enhanced anti-cancer activity, about 0 neutral, <0 antagonist
[7] = Complete minus Cholesterol-free, greater than 0 enhanced anti-cancer activity, about 0 neutral, below 0 antagonists
[8] = NCI-H292 cells in cholesterol-free media without statin
[9] = NCI-H292 cells in complete media
[10] = NCI-H292 cells, FDA drug library screen, cholesterol-free media with simvastatin 0.04 μM
[11] = NCI-H292 cells, FDA drug library screen, complete media
[12] = NCI-H292 cells, FDA library drug in cholesterol-free media with simvastatin 0.04 μM
[13] = NCI-H292 cells, FDA library drug in complete media
[14] = complete media vs cholesterol-free media + simvastatin (0.04 μM), >0 enhanced anti-cancer activity, about 0 neutral, <0 antagonist
[15] = complete vs cholesterol-free media, >0 enhanced anti-cancer activity, about 0 neutral, <0 antagonist
[16] = NCI-H292 cells, cholesterol-free media without statin
[17] = complete vs cholesterol-free media, […]
[18] = complete media minus cholesterol-free media + simvastatin, […]

Q: `CSCCC(N)C(=O)O` (racemic) [DL-Methionine] was tested. Which Difference [1, 3] did it give?
A: −0.06

Q: What about the Cholesterol-free [1, 4] of the same molecule?
A: 1.381

Q: And the Complete [1, 5]?
A: 1.325

Q: What about the “Cholesterol-free media + simvastatin (0.04 μM)” value ([2]; NCI-H292 cells, cholesterol-free media with simvastatin 0.04 μM, cell growth value in FDA drug screen) of the same molecule?
A: 0.9866

Q: What about the “Complete Media” value ([2]; NCI-H292 cells, complete media, cell growth value in FDA drug screen) of the same molecule?
A: 1.007

Q: What about the Difference [2, 6] of the same molecule?
A: 0.02

Q: Which results are given for Tolterodine (tartrate)?
A: Cholesterol-free [1]: 1.873; Complete [1]: 0.9529; Difference [1]: −0.92; Cholesterol-free media + simvastatin (0.04 μM) [2]: 1.183; Complete Media [2]: 1.127; Difference [2]: −0.06

Q: Which results are given for `CCN1CC(CCN2CCOCC2)C(c2ccccc2)(c2ccccc2)C1=O` (stereo not drawn) [Doxapram (hydrochloride hydrate)]?
A: Difference [1, 7]: −1.01; Cholesterol-free [1, 8]: 2.003; Complete [1, 9]: 0.9924; Cholesterol-free media + simvastatin (0.04 μM) [2, 10]: 0.894; Complete Media [2, 11]: 1.128; Difference [2, 6]: 0.23

Q: What does the source list for `CCCCCCCCCCCCCCCC(=O)OC1CCCn2c1nc(C)c(CCN1CCC(c3noc4cc(F)ccc34)CC1)c2=O` (stereo not drawn) [Paliperidone palmitate]?
A: Difference ([1]; Complete minus Cholesterol-free, greater than 0 enhanced anti-cancer activity, about 0 neutral, below 0 antagonist): −0.16; Cholesterol-free ([1]; NCI-H292 cells, FDA drug library screen, cholesterol-free media without statin): 1.234; Complete [1, 11]: 1.075; Cholesterol-free media + simvastatin (0.04 μM) [2, 12]: 1.193; Complete Media [2, 13]: 0.8268; Difference [2, 14]: −0.37

Q: Which Difference [1, 3] does the source give for `CCN(CC)CCOC(=O)C(Cc1cccc2ccccc12)CC1CCCO1.O=C(O)C(=O)O` (stereo not drawn) [Naftidrofuryl (oxalate)] here?
A: −0.04

Q: What about the Cholesterol-free [1, 4] of the same molecule?
A: 1.015

Q: And the Complete [1, 5]?
A: 0.9733

Q: And the “Cholesterol-free media + simvastatin (0.04 μM)” value ([2]; NCI-H292 cells, cholesterol-free media with simvastatin 0.04 μM, FDA drug library screen (TABLE 2))?
A: 1.139

Q: What about the “Complete Media” value ([2]; NCI-H292 cells, complete media, FDA drug library screen (TABLE 2)) of the same molecule?
A: 1.076

Q: And the Difference ([2]; complete media minus cholesterol-free media + simvastatin (0.04 μM), >0 enhanced anti-cancer activity, about 0 neutral, <0 antagonist)?
A: −0.06

Q: Which Difference [1, 7] does the source give for `CC(C)(C)c1ccc(C(=O)CCCN2CCC(OC(c3ccccc3)c3ccccc3)CC2)cc1` [Ebastine] here?
A: −0.60

Q: And the Cholesterol-free [1, 8]?
A: 1.238

Q: And the Complete [1, 9]?
A: 0.6382

Q: What about the “Cholesterol-free media + simvastatin (0.04 μM)” value [2, 10] of the same molecule?
A: 0.2638

Q: And the “Complete Media” value [2, 11]?
A: 1.066

Q: What about the Difference [2, 6] of the same molecule?
A: 0.80

Q: Which results are given for `N[C@@H](CCC(=O)O)C(=O)[O-].[Na+]` [L-Glutamic acid monosodium salt]?
A: Difference ([1]; Complete minus Cholesterol-free, […]): −0.03; Cholesterol-free [1, 4]: 1.093; Complete [1, 5]: 1.059; Cholesterol-free media + simvastatin (0.04 μM) [2, 12]: 1.191; Complete Media [2, 13]: 0.778; Difference ([2]; complete media vs cholesterol-free media + simvastatin (0.04 μM), […]): −0.41

Q: `CCCS(=O)(=O)Nc1ccc(F)c(C(=O)c2c[nH]c3ncc(-c4ccc(Cl)cc4)cc23)c1F` [Vemurafenib] was tested. Which Cholesterol-free [1, 4] did it give?
A: 0.6442

Q: And the Complete [1, 5]?
A: 1.257

Q: And the Difference [1, 15]?
A: 0.61

Q: And the “Cholesterol-free media + simvastatin (0.04 μM)” value [2, 10]?
A: 0.8006

Q: And the “Complete Media” value [2, 11]?
A: 0.9559

Q: What about the Difference [2, 6] of the same molecule?
A: 0.16

Q: `C/C=C(/C)C(=O)O[C@H]1C(C)=C[C@]23C(=O)[C@@H](C=C(CO)[C@@H](O)[C@]12O)[C@H]1[C@@H](C[C@H]3C)C1(C)C` [Ingenol Mebutate] was tested. Which Cholesterol-free [1, 16] did it give?
A: 0.6991

Q: What about the Complete ([1]; NCI-H292 cells, complete media) of the same molecule?
A: 0.3918

Q: And the Difference [1, 17]?
A: −0.31

Q: What about the “Cholesterol-free media + simvastatin (0.04 μM)” value ([2]; NCI-H292 cells, cholesterol-free media with simvastatin 0.04 μM, […]) of the same molecule?
A: 0.2962

Q: And the “Complete Media” value ([2]; NCI-H292 cells, complete media, […])?
A: 0.4169

Q: What about the Difference [2, 18] of the same molecule?
A: 0.12

Q: Which results are given for `CC(C)(C)c1cc(NC(=O)Nc2ccc(-c3cn4c(n3)sc3cc(OCCN5CCOCC5)ccc34)cc2)no1` [Quizartinib]?
A: Cholesterol-free [1, 4]: 0.663; Complete [1, 5]: 0.7657; Difference [1, 15]: 0.10; Cholesterol-free media + simvastatin (0.04 μM) ([2]; NCI-H292 cells, drug in cholesterol-free media with simvastatin 0.04 μM): 1.022; Complete Media ([2]; NCI-H292 cells, drug in complete media): 0.8076; Difference [2, 14]: −0.21

Q: `c1ccc(-c2ccc(C(c3ccccc3)n3ccnc3)cc2)cc1` (stereo not drawn) [Bifonazole] was tested. Which Cholesterol-free [1, 16] did it give?
A: 1.572

Q: What about the Complete ([1]; NCI-H292 cells, complete media) of the same molecule?
A: 1.228

Q: What about the Difference ([1]; complete vs cholesterol-free media, greater than 0 enhanced anti-cancer activity, about 0 neutral, below 0 antagonists) of the same molecule?
A: −0.34

Q: And the “Cholesterol-free media + simvastatin (0.04 μM)” value [2, 10]?
A: 0.4379

Q: And the “Complete Media” value [2, 11]?
A: 0.7844

Q: What about the Difference [2, 6] of the same molecule?
A: 0.35

Q: Which results are given for `CC1(C)CC[C@]2(C(=O)O)CC[C@]3(C)C(=CC[C@@H]4[C@@]5(C)CC[C@H](O)C(C)(C)[C@@H]5CC[C@]43C)[C@@H]2C1` [Oleanolic Acid]?
A: Difference [1, 3]: −0.19; Cholesterol-free [1, 16]: 1.001; Complete ([1]; NCI-H292 cells, complete media): 0.8111; Cholesterol-free media + simvastatin (0.04 μM) [2, 10]: 1.063; Complete Media [2, 11]: 1.721; Difference [2, 6]: 0.66

Q: `O=[N+]([O-])O[C@@H]1CO[C@H]2[C@@H]1OC[C@@H]2O` [Isosorbide mononitrate] was tested. Which Cholesterol-free [1, 16] did it give?
A: 1.459

Q: And the Complete ([1]; NCI-H292 cells, complete media)?
A: 1.127

Q: What about the Difference [1, 17] of the same molecule?
A: −0.33

Q: What about the “Cholesterol-free media + simvastatin (0.04 μM)” value [2, 10] of the same molecule?
A: 0.8339

Q: And the “Complete Media” value [2, 11]?
A: 1.021

Q: And the Difference [2, 18]?
A: 0.19

— patent US20250144067A1, “PERSONALIZED STARVATION THERAPY FOR CANCER” (Faeth Therapeutics, Inc., priority 2021, published 2025)
